The subject of test [1] is HEK293sieSTAT3(wt). The test is described as follows: drug sensitivity score (DSS), cytotoxicity CellTox Green (DSS (dimensionless)); higher = more cytotoxic; extreme values may be limits of the assay. The settings on record: 72 h; STAT3 variant: wild type. Summed up:
(§1)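 A drug sensitivity score, based on the area of the dose-response curve, was calculated in Breeze after normalising values to negative and positive control wells. It came from HEK293 cells carrying a STAT3-dependent luciferase reporter and overexpressing wild-type or mutant STAT3, plated at 20 μl of 100,000 cells/ml onto compounds acoustically pre-plated at 5 concentrations in 10-fold dilutions in 384-well plates. Following 72 hours at 37°C and 5% CO2, CellTox Green fluorescence (485/520 nm) and then CellTiter-Glo luminescence were read on a PHERAstar FS.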

The subject of test [2] is HEK293sieSTAT3(Y640F). The description is as above. The settings on record: 72 h; STAT3 variant: Y640F (constitutively active). Summed up:
as §1

Test [3] has as its system HEK293sieSTAT3(wt). The test is described as follows: drug sensitivity score (DSS), viability CellTiter-Glo (DSS (dimensionless)); higher = more growth inhibition; extreme values may be limits of the assay. The note with it: 72 h; STAT3 variant: wild type. Summed up: as §1
Background: Cellular ATP, detected with luciferase, serves as a proxy for viable cell number.

Test [4] relates to HEK293sieSTAT3(Y640F). The description is as above. The settings on record: 72 h; STAT3 variant: Y640F (constitutively active). The essentials: as §1

Take `Cc1cccc(-c2nn3c(c2-c2ccnc4ccc(C(N)=O)cc24)CCC3)n1` [Galunisertib] (top concentration tested 1000 nM): the drug sensitivity score turned out to be 0 with HEK293sieSTAT3(wt) [1], 1.47 in the test on HEK293sieSTAT3(Y640F) [2], 0 in the test with HEK293sieSTAT3(wt) [3] and 0 in the test on HEK293sieSTAT3(Y640F) [4].

With `Cc1cc(Nc2cc(CN3CCOCC3)c3nc(C)c(Cc4ccc(Cl)cc4F)n3n2)n[nH]1` [Gandotinib] (top concentration tested 10000 nM), the drug sensitivity score was found to be 6.79 in the test on HEK293sieSTAT3(wt) [1], 2.66 in the test on HEK293sieSTAT3(Y640F) [2], 8.78 in the test on HEK293sieSTAT3(wt) [3] and 5.34 in the test on HEK293sieSTAT3(Y640F) [4].

For the molecule `CC(C)c1cc(-c2n[nH]c(=O)n2-c2ccc3c(ccn3C)c2)c(O)cc1O` [Ganetespib] (top concentration tested 1000 nM), the drug sensitivity score in the test with HEK293sieSTAT3(wt) [1] was 23.1; with HEK293sieSTAT3(Y640F) [2] it was 6.77; with HEK293sieSTAT3(wt) [3], 27.4; in the test on HEK293sieSTAT3(Y640F) [4] it was 20.6.

`CN(C)C1CCN(C(=O)c2ccc(NC(=O)Nc3ccc(-c4nc(N5CCOCC5)nc(N5CCOCC5)n4)cc3)cc2)CC1` [Gedatolisib] (top concentration tested 1000 nM): the drug sensitivity score with HEK293sieSTAT3(wt) [1] stood at 0.82; in the test on HEK293sieSTAT3(Y640F) [2], 0; with HEK293sieSTAT3(wt) [3], 9.54; in the test on HEK293sieSTAT3(Y640F) [4] it was 12.9.

For the molecule `COc1cc2ncnc(Nc3ccc(F)c(Cl)c3)c2cc1OCCCN1CCOCC1` [Gefitinib] (top concentration tested 10000 nM), the drug sensitivity score in the test on HEK293sieSTAT3(wt) [1] turned out to be 1.5; with HEK293sieSTAT3(Y640F) [2] it was 0; in the test with HEK293sieSTAT3(wt) [3], 3.96; in the test with HEK293sieSTAT3(Y640F) [4], 1.88.

On to `Nc1ccn([C@@H]2O[C@H](CO)[C@@H](O)C2(F)F)c(=O)n1` [Gemcitabine] (top concentration tested 1000 nM), for which the drug sensitivity score in the test on HEK293sieSTAT3(wt) [1] came to 4.58; in the test on HEK293sieSTAT3(Y640F) [2] it was 2.77; in the test on HEK293sieSTAT3(wt) [3], 19.5; in the test with HEK293sieSTAT3(Y640F) [4], 14.6.

In the case of `CCN(CC)Cc1ccc2cc(COC(=O)Nc3ccc(C(=O)NO)cc3)ccc2c1` [Givinostat] (top concentration tested 1000 nM), the drug sensitivity score with HEK293sieSTAT3(wt) [1] turned out to be 6.08; with HEK293sieSTAT3(Y640F) [2], 4.23; with HEK293sieSTAT3(wt) [3], 11.6; in the test on HEK293sieSTAT3(Y640F) [4], 10.8.

Regarding `CN1CC[C@@H](NC(=O)Nc2ccc(C#N)cc2)C[C@@H]1c1nc2ccccc2[nH]1` [Glasdegib] (top concentration tested 1000 nM), the drug sensitivity score stood at 0 in the test on HEK293sieSTAT3(wt) [1], 0 in the test on HEK293sieSTAT3(Y640F) [2], 0 in the test with HEK293sieSTAT3(wt) [3] and 3.01 in the test with HEK293sieSTAT3(Y640F) [4].

With `CN1CCN(C2CCN(C(=O)Nc3cc(Oc4ccc(NC(=O)C5(C(=O)Nc6ccc(F)cc6)CC5)c(F)c4)ccn3)CC2)CC1` [Golvatinib] (top concentration tested 2500 nM), the drug sensitivity score in the test on HEK293sieSTAT3(wt) [1] was determined as 0.24; in the test on HEK293sieSTAT3(Y640F) [2] it was 0; in the test with HEK293sieSTAT3(wt) [3] it was 1.49; in the test with HEK293sieSTAT3(Y640F) [4], 2.77.

For the molecule `CC(C)C[C@H](NC(=O)[C@@H](COC(C)(C)C)NC(=O)[C@H](Cc1ccc(O)cc1)NC(=O)[C@H](CO)NC(=O)[C@H](Cc1c[nH]c2ccccc12)NC(=O)[C@H](Cc1cnc[nH]1)NC(=O)[C@@H]1CCC(=O)N1)C(=O)N[C@@H](CCCNC(=N)N)C(=O)N1CCC[C@H]1C(=O)NNC(N)=O` [Goserelin] (top concentration tested 10000 nM), the drug sensitivity score in the test on HEK293sieSTAT3(wt) [1] came out at 0; with HEK293sieSTAT3(Y640F) [2], 0; in the test on HEK293sieSTAT3(wt) [3], 1.57; in the test with HEK293sieSTAT3(Y640F) [4], 2.1.

For the molecule `O=S(=O)(c1cccc2c(O)nccc12)N1CCCNCC1` [Hydroxyfasudil] (top concentration tested 37500 nM), the drug sensitivity score was 0 with HEK293sieSTAT3(wt) [1], 0 with HEK293sieSTAT3(Y640F) [2], 5.7 in the test on HEK293sieSTAT3(wt) [3] and 0.45 in the test on HEK293sieSTAT3(Y640F) [4].

Consider `NC(=O)NO` [Hydroxyurea] (top concentration tested 100000 nM), for which the drug sensitivity score turned out to be 0 in the test with HEK293sieSTAT3(wt) [1], 0 with HEK293sieSTAT3(Y640F) [2], 1.75 with HEK293sieSTAT3(wt) [3] and 4.19 with HEK293sieSTAT3(Y640F) [4].

As for `COc1cc2c(cc1-c1c(C)noc1C)ncc1[nH]c(=O)n([C@H](C)c3ccccn3)c12` [I-BET151] (top concentration tested 10000 nM), the drug sensitivity score worked out at 6.67 in the test with HEK293sieSTAT3(wt) [1], 2.48 in the test with HEK293sieSTAT3(Y640F) [2], 5.57 with HEK293sieSTAT3(wt) [3] and 8.85 in the test on HEK293sieSTAT3(Y640F) [4].

For `O=C(O)c1ccc(O)c2ncccc12` [IOX-1] (top concentration tested 100000 nM), the drug sensitivity score with HEK293sieSTAT3(wt) [1] is 0; in the test with HEK293sieSTAT3(Y640F) [2] it was 0; with HEK293sieSTAT3(wt) [3] it was 2.26; in the test on HEK293sieSTAT3(Y640F) [4], 1.18.

With `O=C(O)CNC(=O)c1c(O)c2ccccc2n(Cc2ccccc2)c1=O` [IOX-2] (top concentration tested 50000 nM), the drug sensitivity score in the test with HEK293sieSTAT3(wt) [1] is 0; in the test with HEK293sieSTAT3(Y640F) [2] it was 0; in the test with HEK293sieSTAT3(wt) [3], 2.91; in the test on HEK293sieSTAT3(Y640F) [4], 0.

In the case of `C=CC(=O)N1CCC[C@@H](n2nc(-c3ccc(Oc4ccccc4)cc3)c3c(N)ncnc32)C1` [Ibrutinib] (top concentration tested 1000 nM), the drug sensitivity score in the test on HEK293sieSTAT3(wt) [1] is 3.43; in the test on HEK293sieSTAT3(Y640F) [2], 0.94; in the test with HEK293sieSTAT3(wt) [3], 2.79; with HEK293sieSTAT3(Y640F) [4] it was 0.59.

Consider `C#Cc1cccc(Nc2ncnc3cc4c(cc23)OCCOCCOCCO4)c1` [Icotinib] (top concentration tested 10000 nM), for which the drug sensitivity score in the test on HEK293sieSTAT3(wt) [1] was 0.13; with HEK293sieSTAT3(Y640F) [2], 0; in the test on HEK293sieSTAT3(wt) [3], 1.11; with HEK293sieSTAT3(Y640F) [4] it was 0.77.

(Values after the supplement of paper PMC7108870.)
